Legend:
ERK = experiment: MAP kinase activity by Western blot in CaCo-2 cells: phosphorylated ERK; format: cell-based, human
Procedure: A CaCo-2 carcinoma cell line of human colon cancer was purchased from American Type Culture Collection (ATCC), and cultured at 37° C. in the presence of 5% CO2 using a DMEM medium containing 10% FCS, 1% NEAA and 1% P/S (100 units/ml penicillin and 100 μg/ml streptomycin).
6×10^5 CaCo-2 cells were inoculated per dish using 6 cm dishes (NUNC), washed twice with phosphate buffered saline (PBS) (-), and then cultured in a serum-free DMEM medium containing 1% NEAA for 24 hours. Subsequently, at a final concentration of 100 μM, homoserine lactone hydrochloride and N-(3-oxododecanoyl)-L-homoserine lactone were each added, and then each solution was allowed to react for 10 minutes. Furthermore, purified acylated homoserine lactone used herein had been dissolved in DMSO in a concentration 400 times higher than the target final concentration, and then subjected to filter sterilization (φ 0.22 μm). As a control, DMSO with a final concentration of 0.25% was used. In addition, α-tubulin was used as an internal standard.
After reaction, the product was washed twice with cold PBS (-), and then frozen at −80° C. The cells were thawed on ice. 200 μl of a lysis buffer (50 mM HEPES, pH 7.5, 50 mM NaCl, 1 mM EDTA, 1.5 mM MgCl2, 1% Triton X-100, 10% glycerin, 10 mM sodium pyrophosphate, 1 mM Na3VO4, 100 mM NaF, 1 mM PMSF, 10 μg/ml aprotinin and 10 μg/ml leupeptin) was added to the cells, and then the cells were scraped off using a scraper. The cells were allowed to stand on ice for 20 minutes, and then centrifuged at 14000 rpm at 4° C. for 15 minutes, thereby collecting the supernatant. Concentration of the collected protein was measured, and then the protein equivalent to 50 μg was subjected to SDS-PAGE. After electrophoresis, the product was blotted on a PVDF membrane. When phosphorylated ERK, JNK, p38 and Akt were measured, blocking was carried out with 0.1% Tween 20 (TBS-T) containing 5% skim milk/Tris-buffered saline. As primary antibodies, an anti-phospho-p44/42 MAP kinase antibody, an anti-phospho-SAPK/JNK antibody, an anti-phospho-p38 MAP kinase antibody, and an anti-phospho-Akt ([…]) antibody were each used. As a secondary antibody, an HRP-labeled anti-rabbit IgG antibody was used. For the α-tubulin used as an internal standard, blocking was carried out with 5% bovine serum albumin (BSA)/TBS-T, and an anti-α-tubulin (Ab-1) antibody and an HRP-labeled anti-mouse IgG antibody were used as a primary antibody and a secondary antibody, respectively. For band detection, Renaissance™ Western Blot Chemiluminescence […] Reagent Plus (NEN) or Western Blotting Luminol Reagent (SANTA CRUZ BIOTECHNOLOGY) was used.
After cell culture, MAP kinase activity and Akt activity were analyzed by Western blot in a manner similar to that used in (1), except that N-(3-oxododecanoyl)-L-homoserine lactones in final concentrations of 0 μM (0.25% DMSO), 1 μM, 10 μM, 30 μM and 100 μM were each added and each solution was allowed to react for 10 minutes (FIG. 8).
After cell culture, N-(3-oxododecanoyl)-L-homoserine lactone with final concentrations of 30 μM and 100 μM were added. For each case, MAP kinase activity and Akt activity were measured by Western blot in a manner similar to that in (1), except for carrying out stimulation with acylated homoserine lactone in a short time course of 0, 5, 10, 30 and 60 minutes (FIG. 11), and in a long time course of 0, 10 minutes, 60 minutes, 2 hours, 4 hours, 6 hours, 8 hours and 10 hours (FIG. 12). In the case of stimulation at 30 μM, both ERK and p38 activities increased with a peak at 10 minutes. However, while ERK activity returned to the base level within 30 minutes, p38 activity lasted until 4 hours after stimulation. The inhibition of Akt activity in the case of stimulation at 30 μM peaked at 5 minutes and lasted until 60 minutes after stimulation, and returned to the base level within 2 hours. ERK activation took place with two steps in the case of stimulation at 100 μM. […]

CaCo-2 cells = experiment: Chromatin condensation and determination of apoptosis by Hoechst33342 staining; format: cell-based, human; conditions: 12 hours of culture
Procedure: 2×10^4 CaCo-2 cells were inoculated on an 8-well culture slide (Collagen I Cellware BioCoat, Becton Dickinson), washed twice with PBS (-), and then cultured in a serum-free DMEM medium containing 1% NEAA for 24 hours. 3-oxododecanoyl homoserine lactone was added at each concentration (1 to 100 μM). After 12 hours of culture, the cells were fixed by 4% paraformaldehyde-3% sucrose/PBS, chromatin staining was carried out using Hoechst 33342 fluorescent dye, and then the cells were observed under a fluorescence microscope. With a magnification of ×400, 5 visual fields were selected at random. Apoptotic cells and normal cells were counted and the proportion of apoptotic cells was calculated. These steps were denoted as n=1, and conducted 3 times or more.

caspase-3 = experiment: Caspase activity by Western blot (cleaved caspase-3) in CaCo-2 cells; format: cell-based, human
Procedure: The activities of caspase (caspase-3 and caspase-9) and PARP (poly-ADP ribose polymerase) were measured in a manner similar to those in Examples 1 and 2 by Western blot analysis using each of anti-activated (cleaved) caspase antibodies, that is, an anti-cleaved caspase-3 antibody, an anti-cleaved caspase-9 antibody (D330) and an anti-cleaved PARP antibody (D214).
N-(3-oxododecanoyl)-L-homoserine lactones with final concentrations of 30 μM and 100 μM were each added to cultured CaCo-2 cells. Caspase-3, caspase-9 and PARP activities were analyzed over time by Western blot at 0 hours, 1 hour, 2 hours, 4 hours, 6 hours, 8 hours and 10 hours after culture. […] Whereas at 30 μM, activated caspase-3 began to be detected 1 hour after stimulation and the activity lasted until 4 hours after stimulation, at 100 μM the activity peaked at 6 hours and lasted until 10 hours after stimulation. Cleaved caspase-9 and cleaved PARP were detected by reprobing each membrane.
Next, 3 hours of reaction with N-(3-oxododecanoyl)-L-homoserine lactone was carried out at concentrations of 0, 1, 10, 30, and 100 μM, and then caspase and PARP activities were measured.

IL-8 = conditions: human alveolar cells; cited from earlier work
IL-12 = conditions: mouse macrophage culture system; cited from earlier work

In the case of `CCCCCCCCCC(=O)CC(=O)N[C@H]1CCOC1=O` [N-(3-oxododecanoyl)-L-homoserine lactone], the ERK activity increase (ERK; 10 μM, 10 minutes) is reported as 1.5 times, the ERK activity increase (ERK; 30 μM, 10 minutes) is reported as 7.7 times and the ERK activity increase (ERK; 100 μM, 10 minutes) is reported as 9.8 times. The “activation of ERK” value (ERK; 100 μM, 10 minutes) was “promoted”, the “concentration at which levels of phosphorylated ERK significantly increased” value (ERK; 10 minutes) was at least 10 µM and the “time for ERK activity to return to the base level” value (ERK; stimulation at 30 μM) was at most 30 min. The “time of peak ERK activity” value (ERK; stimulation at 30 μM) was 10 min, the “time at which ERK activity began to increase, second step” value (ERK; stimulation at 100 μM) was 4 h and the “time for ERK activity to return to the base level, first step” value (ERK; stimulation at 100 μM) was at most 2 h. For the same compound, the “time for ERK activity to return to the base level, second step” value (ERK; stimulation at 100 μM) was at most 10 h, the “time of peak ERK activity, first step” value (ERK; stimulation at 100 μM) was 5 min and the “time of peak ERK activity, second step” value (ERK; stimulation at 100 μM) was 8 h. The “cell morphology by Hoechst 33342 staining” value (CaCo-2 cells; 1 μM) was “only normal cells were observed”, the “proportion of apoptotic cells to the total cell count” value (“proportion of apoptotic cells” below) (CaCo-2 cells; 10 μM) was 15% and the “proportion of apoptotic cells” value (CaCo-2 cells; 30 μM) was 39%. For the same compound, the “proportion of apoptotic cells” value (CaCo-2 cells; 100 μM) was 50%, the “concentration at which apoptotic cells exhibiting chromatin condensation were observed” value (CaCo-2 cells) was at least 10 µM and the “caspase-3 activity lasted until (after stimulation)” value (caspase-3; 30 μM) was 4 h. For the same compound, the “time at which activated caspase-3 began to be detected after stimulation” value (caspase-3; 30 μM) was 1 h, the “caspase-3 activity lasted until (after stimulation)” value (caspase-3; 100 μM) was 10 h and the “time of peak caspase-3 activity” value (caspase-3; 100 μM) was 6 h. The “concentration at which cleaved caspase (caspase-3) was detected” value (caspase-3; 3 hours of reaction, 0, 1, 10, 30 and 100 μM) was at least 30 µM, the IL-8 production (IL-8) was “stimulates” and the IL-12 production (IL-12) was “promotes”.

Source: patent US7537906B2, “Apoptosis inducer and method of screening for a substance inhibiting acylated homoserine lactone” (priority 2003, dated 2009)
